{
  "source": "patent US10280241B2",
  "about": "“Tackifier compounds and methods of using the same” (Iowa State University Research Foundation, Inc., priority 2012, dated 2019)",
  "key": {"[1]": {"assay": "Water solubility of tackifiers", "format": "physicochemical", "description": "Altering the identity of the acid anhydride altered tackifier properties."}, "[2]": {"assay": "Glass transition temperature by DSC", "format": "physicochemical", "conditions": "measured by DSC", "experimental": "Tack was measured by modifications to the […] standard. On an Instron® load frame, the tackifier to be tested was applied to a glass slide at a thickness of 0.1 mm. The slide was then clamped to a flat surface and, perpendicularly, a type 304 stainless steel probe measuring 5 mm in diameter, with a 90° polished tip was place above the slide. The probe was then lowered at a rate of 0.5 mm sec^−1 and contacted the surface at an average force of 1.5 N. The probe was then held on the surface for 1.0 sec and then raised at a rate of 0.5 mm sec^−1. Tack was measured as the maximum force required to remove the probe from the surface of the tackifier. Tg was measured by DSC."}},
  "data": [
    {"smiles": "O=C(O)CCCC(=O)O[C@H]1CO[C@H]2[C@@H]1OC[C@H]2OC(=O)CCCC(=O)O", "note": "[3b]", "values": [
      {"measurement": "Water solubility (in words)", "setting": "[1]", "result": "substantially water-insoluble"},
      {"measurement": "Tg", "setting": "[2]", "result": "−24", "unit": "°C"}
    ]},
    {"smiles": "O=C(O)CCCC(=O)O[C@@H]1CO[C@H]2[C@@H]1OC[C@H]2OC(=O)CCCC(=O)O", "note": "[5b]", "values": [
      {"measurement": "Tg", "setting": "[2]", "result": "−26", "unit": "°C"}
    ]},
    {"smiles": "O=C(O)CCC(=O)O[C@@H]1CO[C@H]2[C@@H]1OC[C@H]2OC(=O)CCC(=O)O", "note": "[5a]", "values": [
      {"measurement": "Tg", "setting": "[2]", "result": "−2", "unit": "°C"}
    ]},
    {"smiles": "O=C(O)CCC(=O)OC1COC2C(OC(=O)CCC(=O)O)COC12", "note": "(stereo not shown) [3a]", "values": [
      {"measurement": "Water solubility (in words)", "setting": "[1]", "result": "substantially water-soluble"},
      {"measurement": "Tg", "setting": "[2]", "result": "−2", "unit": "°C"}
    ]},
    {"smiles": "O=C(O)C=CC(=O)O[C@H]1CO[C@H]2[C@@H]1OC[C@H]2OC(=O)C=CC(=O)O", "note": "[3c]", "values": [
      {"measurement": "Tg", "setting": "[2]", "result": 16, "unit": "°C"}
    ]}
  ]
}
